# Measured values taken from PubChem BioAssay (NCI).
#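 GI50 = concentration required for 50% inhibition of growth. At the TGI there is no net growth.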
# How the values were obtained:
# Experiment in all cases: inhibition of tumour cell growth, NCI panel, 384-well format
# 786-0 renal = system: 786-0 renal
# A498 renal = system: A498 renal
# A549 NSCLC = system: A549 NSCLC
# BT-549 breast = system: BT-549 breast
# CAKI-1 renal = system: CAKI-1 renal
# CCRF-CEM leukemia = system: CCRF-CEM leukemia
# HCC-2998 colon = system: HCC-2998 colon
# HCT-15 colon = system: HCT-15 colon
# HL-60(TB) leukemia = system: HL-60(TB) leukemia
# HOP-92 NSCLC = system: HOP-92 NSCLC
# HT29 colon = system: HT29 colon
# IGROV1 ovarian = system: IGROV1 ovarian
# K-562 leukemia = system: K-562 leukemia
# KM12 colon = system: KM12 colon
# LOX IMVI melanoma = system: LOX IMVI melanoma
# M14 melanoma = system: M14 melanoma
# MALME-3M melanoma = system: MALME-3M melanoma
# MCF7 breast = system: MCF7 breast
# MDA-MB-435 melanoma = system: MDA-MB-435 melanoma
# MDA-MB-468 breast = system: MDA-MB-468 breast
# MOLT-4 leukemia = system: MOLT-4 leukemia
# NCI-H226 lung = system: NCI-H226 lung
# NCI-H322M lung = system: NCI-H322M lung
# NCI-H460 NSCLC = system: NCI-H460 NSCLC
# NCI-H522 lung = system: NCI-H522 lung
# OVCAR-4 ovarian = system: OVCAR-4 ovarian
# OVCAR-5 ovarian = system: OVCAR-5 ovarian
# OVCAR-8 ovarian = system: OVCAR-8 ovarian
# PC-3 prostate = system: PC-3 prostate
# RPMI-8226 leukemia = system: RPMI-8226 leukemia
# RXF 393 renal = system: RXF 393 renal
# SF-268 CNS = system: SF-268 CNS
# SF-295 CNS = system: SF-295 CNS
# SF-539 CNS = system: SF-539 CNS
# SK-MEL-2 melanoma = system: SK-MEL-2 melanoma
# SK-MEL-28 melanoma = system: SK-MEL-28 melanoma
# SK-MEL-5 melanoma = system: SK-MEL-5 melanoma
# SK-OV-3 ovarian = system: SK-OV-3 ovarian
# SR leukemia = system: SR leukemia
# T-47D breast = system: T-47D breast
# TK-10 renal = system: TK-10 renal
# U251 glioblastoma = system: U251 glioblastoma
# UACC-257 melanoma = system: UACC-257 melanoma
# UACC-62 melanoma = system: UACC-62 melanoma
# UO-31 renal = system: UO-31 renal
smiles,measurement,setting,value
Cc1c(Nc2nccc3cc(CN4CC[C@@H](O)C4)cnc23)cccc1-c1cccc(-c2nc3cc(CN4CC[C@@H](C(=O)O)C4)cc(C#N)c3o2)c1C,GI50,786-0 renal,334 nM
same,TGI,786-0 renal,1260 nM
same,GI50,A498 renal,391 nM
same,TGI,A498 renal,1490 nM
same,GI50,A549 NSCLC,441 nM
same,TGI,A549 NSCLC,2970 nM
same,GI50,BT-549 breast,140 nM
same,TGI,BT-549 breast,532 nM
same,GI50,CAKI-1 renal,464 nM
same,TGI,CAKI-1 renal,> 100000 nM
same,GI50,CCRF-CEM leukemia,147 nM
same,TGI,CCRF-CEM leukemia,287 nM
same,GI50,HCC-2998 colon,318 nM
same,TGI,HCC-2998 colon,1250 nM
same,GI50,HCT-15 colon,1530 nM
same,TGI,HCT-15 colon,3010 nM
same,GI50,HL-60(TB) leukemia,172 nM
same,TGI,HL-60(TB) leukemia,314 nM
same,GI50,HOP-92 NSCLC,297 nM
same,TGI,HOP-92 NSCLC,1970 nM
same,GI50,HT29 colon,213 nM
same,TGI,HT29 colon,496 nM
same,GI50,IGROV1 ovarian,1070 nM
same,TGI,IGROV1 ovarian,> 100000 nM
same,GI50,K-562 leukemia,205 nM
same,TGI,K-562 leukemia,567 nM
same,GI50,KM12 colon,69.7 nM
same,TGI,KM12 colon,679 nM
same,GI50,LOX IMVI melanoma,668 nM
same,TGI,LOX IMVI melanoma,1860 nM
same,GI50,M14 melanoma,259 nM
same,TGI,M14 melanoma,866 nM
same,GI50,MALME-3M melanoma,127 nM
same,TGI,MALME-3M melanoma,851 nM
same,GI50,MCF7 breast,223 nM
same,TGI,MCF7 breast,1430 nM
same,GI50,MDA-MB-435 melanoma,47.3 nM
same,TGI,MDA-MB-435 melanoma,206 nM
same,GI50,MDA-MB-468 breast,117 nM
same,TGI,MDA-MB-468 breast,310 nM
same,GI50,MOLT-4 leukemia,171 nM
same,TGI,MOLT-4 leukemia,315 nM
same,GI50,NCI-H226 lung,449 nM
same,TGI,NCI-H226 lung,3730 nM
same,GI50,NCI-H322M lung,416 nM
same,TGI,NCI-H322M lung,> 100000 nM
same,GI50,NCI-H460 NSCLC,193 nM
same,TGI,NCI-H460 NSCLC,435 nM
same,GI50,NCI-H522 lung,118 nM
same,TGI,NCI-H522 lung,287 nM
same,GI50,OVCAR-4 ovarian,459 nM
same,TGI,OVCAR-4 ovarian,4980 nM
same,GI50,OVCAR-5 ovarian,522 nM
same,TGI,OVCAR-5 ovarian,> 100000 nM
same,GI50,OVCAR-8 ovarian,514 nM
same,TGI,OVCAR-8 ovarian,1830 nM
same,GI50,PC-3 prostate,403 nM
same,TGI,PC-3 prostate,1750 nM
same,GI50,RPMI-8226 leukemia,152 nM
same,TGI,RPMI-8226 leukemia,290 nM
same,GI50,RXF 393 renal,137 nM
same,TGI,RXF 393 renal,390 nM
same,GI50,SF-268 CNS,371 nM
same,TGI,SF-268 CNS,3960 nM
same,GI50,SF-295 CNS,416 nM
same,TGI,SF-295 CNS,1450 nM
same,GI50,SF-539 CNS,274 nM
same,TGI,SF-539 CNS,971 nM
same,GI50,SK-MEL-2 melanoma,26.2 nM
same,TGI,SK-MEL-2 melanoma,142 nM
same,GI50,SK-MEL-28 melanoma,261 nM
same,TGI,SK-MEL-28 melanoma,1620 nM
same,GI50,SK-MEL-5 melanoma,94.8 nM
same,TGI,SK-MEL-5 melanoma,321 nM
same,GI50,SK-OV-3 ovarian,246 nM
same,TGI,SK-OV-3 ovarian,1180 nM
same,GI50,SR leukemia,28.9 nM
same,TGI,SR leukemia,107 nM
same,GI50,T-47D breast,325 nM
same,TGI,T-47D breast,> 100000 nM
same,GI50,TK-10 renal,1660 nM
same,TGI,TK-10 renal,> 100000 nM
same,GI50,U251 glioblastoma,335 nM
same,TGI,U251 glioblastoma,1150 nM
same,GI50,UACC-257 melanoma,229 nM
same,TGI,UACC-257 melanoma,1040 nM
same,GI50,UACC-62 melanoma,304 nM
same,TGI,UACC-62 melanoma,1850 nM
same,GI50,UO-31 renal,3250 nM
same,TGI,UO-31 renal,> 100000 nM
